Measurements reported in ChEMBL document CHEMBL1148067, “Khusimol, a non-peptide ligand for vasopressin V1a receptors” (J Nat Prod, 1994).
Activity calls are given as the source filed them. No cut-off for these calls is given here.

Tests used:
[1] = molecular target: T1, Vasopressin V1a receptor (Rattus norvegicus, UniProt P30560); test: Displacement of [3H]AVP from vasopressin V1a receptor in rat liver membrane by competitive displacement assay; format: cell membranes
[2] = molecular target: Vasopressin V1a receptor (Rattus norvegicus) (UniProt P30560); test: Displacement of [3H]AVP from vasopressin V1a receptor in rat liver membrane at 25 uM by competitive displacement assay; format: cell membranes
Vasopressin V1a receptor (Rattus norvegicus), sequence (P30560 whole entry, looked up): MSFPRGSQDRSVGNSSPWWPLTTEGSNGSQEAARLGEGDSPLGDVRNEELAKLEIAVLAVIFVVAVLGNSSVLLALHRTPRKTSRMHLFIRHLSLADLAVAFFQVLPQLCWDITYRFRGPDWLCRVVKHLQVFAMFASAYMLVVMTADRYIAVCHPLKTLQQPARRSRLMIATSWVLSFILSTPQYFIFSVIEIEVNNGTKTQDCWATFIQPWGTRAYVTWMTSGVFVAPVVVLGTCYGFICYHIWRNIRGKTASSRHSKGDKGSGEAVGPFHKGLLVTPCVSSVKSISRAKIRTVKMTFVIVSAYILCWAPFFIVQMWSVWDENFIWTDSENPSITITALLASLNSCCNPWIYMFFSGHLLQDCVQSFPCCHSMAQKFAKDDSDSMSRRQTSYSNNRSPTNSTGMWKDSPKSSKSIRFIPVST

[3] = molecular target: Vasopressin V1a receptor (Rattus norvegicus) (UniProt P30560); test: Displacement of [3H]AVP from vasopressin V1a receptor in rat liver membrane at 50 uM by competitive displacement assay; format: cell membranes
[4] = molecular target: T1, Vasopressin V1a receptor; test: Displacement of [3H]AVP from vasopressin V1a receptor in rat liver membrane; format: cell membranes
[5] = molecular target: Vasopressin V1a receptor (Homo sapiens, UniProt P37288); test: Binding affinity to vasopressin V1a receptor
Vasopressin V1a receptor (Homo sapiens, UniProt P37288), sequence (P37288 whole entry): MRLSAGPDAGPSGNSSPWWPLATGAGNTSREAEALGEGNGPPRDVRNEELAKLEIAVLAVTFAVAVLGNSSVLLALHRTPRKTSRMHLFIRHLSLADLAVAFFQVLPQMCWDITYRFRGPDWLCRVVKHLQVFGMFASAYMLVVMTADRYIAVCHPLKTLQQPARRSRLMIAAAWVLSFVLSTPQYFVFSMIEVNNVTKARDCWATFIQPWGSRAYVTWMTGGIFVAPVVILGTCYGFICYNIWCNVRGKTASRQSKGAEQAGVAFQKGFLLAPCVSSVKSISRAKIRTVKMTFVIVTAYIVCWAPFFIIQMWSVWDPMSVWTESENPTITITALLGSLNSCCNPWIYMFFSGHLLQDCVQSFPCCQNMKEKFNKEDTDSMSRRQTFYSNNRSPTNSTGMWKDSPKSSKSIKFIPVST

T1 sequence (P30560 whole entry): as the sequence (P30560 whole entry, looked up) above

SMILES | Ki [1] | inhibition [2] | inhibition [3] | IC50 [4] | Ki [4] | Ki [5]
C=C1[C@H]2CC[C@H](CO)[C@@]23CC[C@H](C3)C1(C)C [KHUSIMOL] | 53 µM | Active | Active | 125 µM | 41 µM | –
CC(=O)NCCCOc1ccc(C(=O)N2CCC(N3C(=O)CCc4ccccc43)CC2)cc1 | – | – | – | – | – | 0.35 µM
